The text below walks through data of patent publication US20240018166A1, “SULFONYL UREA NLRP3 INFLAMMASOME INHIBITORS” (Venatorx Pharmaceuticals, Inc., priority 2020, published 2024).

One data set addresses T1, IL-1 (Homo sapiens, UniProt P01584).
T1 construct: host or cells: patients (in vivo)
Particulars: cited from earlier work.

The next data set has as its system IL-1β. The experiment in a line: IL-1β inhibition assay (ELISA/HTRF of culture supernatants). The format is cell-based. To be noted: Homo sapiens, PMA-differentiated THP-1 cells, tested 10 μM to 0.003 μM. The procedure, abridged:
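PMA-differentiated THP-1 cells treated at final compound concentrations of 10 μM to 0.003 μM; supernatant IL-1β quantified by Quantikine ELISA or HTRF. Background-subtracted values expressed as % of vehicle controls; EC50 from four-parameter variable-slope nonlinear regression.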

Data set [1] can be described thus: MTT cell viability assay, THP-1 cells. It is filed as cell-based. Particulars: human, unstimulated THP-1 cells, read-out: THP-1 Cytotoxicity CC50. The procedure, abridged: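 Unstimulated THP-1 (5×10^4/well) or HepG2 (5×10^3/well) cells exposed to compound for 72 h, then MTT 3 h at 37 °C. Formazan solubilised overnight in DMF/acetic acid/SDS (THP-1) or in DMSO (HepG2); absorbance 570 nm. CC50 by four-parameter fit of percent vehicle control.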

Data set [2] is described as follows: MTT cell viability assay, HepG2 cells. It is filed as cell-based. Particulars: human, read-out: HepG2 Cytotoxicity CC50. Here is the method: In order to assess the cytotoxicity of the compounds, an MTT cell viability assay was performed in either unstimulated THP-1 or HepG2 cells as follows. 5×10^4 THP-1 or 5×10^3 HepG2 cells were seeded into each well of a 96-well plate in 90 μL of media. Compounds were added to cells as described for the IL-10 assay and returned to the incubator for an additional 72 hours. Next, 25 μL of MTT solution (5 mg/mL in sterile PBS) was added to each well. Plates were incubated for 3 hours at 37° C., 5% CO2. Next, for THP-1 cells, 100 μl of MTT solubilization solution (40% Dimethylformamide, 2% glacial acetic acid, 16% sodium dodecyl sulfate) was then added to each well and plates were incubated at room temperature in the dark overnight. For HepG2 cells, media was aspirated, 50 μL of DMSO was added and plates were mixed briefly with an orbital plate shaker. Absorbance at 570 nm was measured using a Perkin-Elmer EnVision plate reader.
Absorbance values were converted to percentage of vehicle-treated controls. Data was then analyzed using a non-linear regression (variable slope (four-parameter)) equation in GraphPad Prism 7.0. […]

As to “canakinumab: the neutralizing IL-10 antibody canakinumab (anti-IL-1, Novartis)”, the “incidence of fatal infection” value with IL-1 (CANTOS trial) is “higher incidence of fatal infection”. Also, the “reduction in total cancer mortality (mostly lung cancer) compared to placebo” value in the data set with IL-1 (high-dose) is more than 50%.

In turn, `CC(C)(CCn1ccc(S(=O)(=O)NC(=O)Nc2c3c(cc4c2CCC4)CCC3)n1)B1OC(C)(C)C(C)(C)O1` [Example 62, N-((1,2,3,5,6,7-hexahydro-s-indacen-4-yl)carbamoyl)-1-(3-methyl-3-(4,4,5,5-tetramethyl-1,3,2-dioxaborolan-2-yl)butyl)-1H-pyrazole-3-sulfonamide] yielded an EC50 with IL-1β of less than 1 µM. Also, the CC50 at 72 h in data set [1] and in data set [2] was more than 10 µM each time.

The compound `COc1cc(-c2ccc3c(c2NC(=O)NS(=O)(=O)c2ccc4c(c2)C(O)OB4O)CCC3)ccn1` (centres unmarked) [Example 53, 1,3-dihydroxy-N-((5-(2-methoxypyridin-4-yl)-2,3-dihydro-1H-inden-4-yl)carbamoyl)-1,3-dihydrobenzo[c][1,2]oxaborole-5-sulfonamide] gave an EC50 in the data set on IL-1β of 1 to 10 µM. Further, the CC50 at 72 h in data set [1] and in data set [2] was more than 10 µM in each case.

In the data set with IL-1β, `CC(C)c1cc(C#N)c(F)c(C(C)C)c1NC(=O)NS(=O)(=O)c1ccc2c(c1)C(O)OB2O` (centres unmarked) [Example 52, N-((4-cyano-3-fluoro-2,6-diisopropylphenyl)carbamoyl)-1,3-dihydroxy-1,3-dihydrobenzo[c][1,2]oxaborole-5-sulfonamide] had an EC50 of more than 10 µM. Moreover, the CC50 at 72 h in data set [1] and in data set [2] was more than 10 µM throughout.

On to `CC(C)c1cc(C#N)c(F)c(C(C)C)c1NC(=O)NS(=O)(=O)c1ccc2c(c1)C(C)OB2O` (centres unmarked) [Example 56, N-((4-cyano-3-fluoro-2,6-diisopropylphenyl)carbamoyl)-1-hydroxy-3-methyl-1,3-dihydrobenzo[c][1,2]oxaborole-5-sulfonamide], for which, in the data set with IL-1β, the EC50 is 1 to 10 µM. Moreover, the CC50 at 72 h in data set [1] and in data set [2] was more than 10 µM throughout.

For `CC(CCn1ccc(S(=O)(=O)NC(=O)Nc2c3c(cc4c2CCC4)CCC3)n1)CB1OC(C)(C)C(C)(C)O1` (centres unmarked) [Example 61, N-((1,2,3,5,6,7-hexahydro-s-indacen-4-yl)carbamoyl)-1-(3-methyl-4-(4,4,5,5-tetramethyl-1,3,2-dioxaborolan-2-yl)butyl)-1H-pyrazole-3-sulfonamide], the EC50 with IL-1β was less than 1 µM. In addition, the CC50 at 72 h in data set [1] and in data set [2] was more than 10 µM each time.

`CC(CCB1O[C@@H]2C[C@@H]3C[C@@H](C3(C)C)[C@]2(C)O1)n1ccc(S(=O)(=O)NC(=O)Nc2c3c(cc4c2CCC4)CCC3)n1` (stereo partly drawn) [Example 60, N-((1,2,3,5,6,7-hexahydro-s-indacen-4-yl)carbamoyl)-1-(4-((3aS,4S,6S,7aR)-3a,5,5-trimethylhexahydro-4,6-methanobenzo[d][1,3,2]dioxaborol-2-yl)butan-2-yl)-1H-pyrazole-3-sulfonamide]: the EC50 with IL-1β is 1 to 10 µM. In addition, the CC50 at 72 h in data set [1] and in data set [2] was more than 10 µM each time.

As for `COc1cc(-c2ccc3c(c2NC(=O)NS(=O)(=O)c2ccc4c(c2)C(C)OB4O)CCC3)ccn1` (centres unmarked) [Example 55, 1-hydroxy-N-((5-(2-methoxypyridin-4-yl)-2,3-dihydro-1H-inden-4-yl)carbamoyl)-3-methyl-1,3-dihydrobenzo[c][1,2]oxaborole-5-sulfonamide], in the data set with IL-1β, the concentration giving a half-maximal response (EC50) is less than 1 µM. For the same compound, the CC50 at 72 h in data set [1] and in data set [2] was more than 10 µM each time.
